From PMC6369240, “Biological evaluation and structure activity relationship of 9-methyl-1-phenyl-9H-pyrido[3,4-b]indole derivatives as anti-leishmanial agents” (Bioorganic Chemistry, 2019)

Legend:
[1] = HeLa cell cytotoxicity, Alamar blue assay; type: cell-based; settings: human; HeLa cells, ~65 h incubation plus 5 h Alamar Blue
Procedure: HeLa cell cytotoxicity studies were carried out as described previously. Briefly, the cells were cultured in DMEM supplemented with 10% fetal calf serum and 2 mM L-glutamine. Cells were plated at initial cell concentration of 2 × 10^4 cells/well and incubated with the compounds for ∼65 h prior to addition of Alamar Blue solution for further 5 h.

[2] = test system: L. infantum JPCM5 MCAN/ES/98/LLM-87 promastigotes; assay: L. infantum promastigote assay (Alamar blue); type: cell-based, Leishmania infantum; settings: for S.I (CC50/IC50), L. infantum promastigote: HeLa CC50 / L. infantum promastigote EC50; for EC50: Leishmania infantum, 72 h, Alamar blue
Procedure: (§1) Anti-leishmanial activity of these analogues was determined by evaluating their inhibition activity against both promastigote, amastigote forms of Leishmania infantum and Leishmania donovani strains. […] Anti-leishmanial drugs miltefosine and pentamidine were used as standards for comparison purpose.
Anti-promastigote activity of these reported β-carboline derivatives was determined by Alamar blue assay method.
(§2) L. donovanipromastigotes were cultured at 37 °C in M199 medium supplemented with 10% heat-inactivated fetal calf serum. L. infantum JPCM5 MCAN/ES/98/LLM-87 promastigotes were cultured at 26 °C in modified Eagle’s medium (HOMEM). Parasites were incubated with serial dilutions of compounds for 72 h, followed by Alamar blue-based assay as previously described.

[3] = test system: L. donovani promastigotes; assay: L. donovani promastigote assay (Alamar blue); type: cell-based, Leishmania donovani; settings: for S.I (CC50/IC50), L. donovani promastigote: HeLa CC50 / L. donovani promastigote EC50; for EC50: Leishmania donovani, 72 h, Alamar blue
Procedure: as §1
L. donovani promastigote inhibition potency of these reported β-carboline derivatives was determined by Alamar blue assay method.
as §2

[4] = test system: L. donovani LdBOB axenic amastigotes; assay: L. donovani axenic amastigote assay (Alamar blue); type: cell-based, Leishmania donovani; settings: for S.I (CC50/IC50), L. donovani axenic amastigote: HeLa CC50 / L. donovani axenic amastigote EC50; for EC50: 72 h, Alamar blue
Procedure: L. donovaniLdBOB axenic amastigotes or L. infantum JPCM5 MCAN/ES/98/LLM-87 were cultured at 37 °C in modified Eagle’s medium (HOMEM; L. infantum) and axenic amastigotes were incubated for 72 h with compounds, followed by Alamar blue-based assay as previously described.

[5] = test system: L. donovani LdBOB intracellular amastigotes in PMA differentiated THP-1 cells; assay: Intra macrophage L. donovani (amastigote) assay in THP-1 cells; type: cell-based, Leishmania donovani; settings: for S.I (CC50/IC50), L. donovani intracellular amastigote: HeLa CC50 / L. donovani intracellular amastigote EC50; for EC50: THP-1 macrophages, 72 h, microscopy readout
Procedure: Although, axenic amastigotes assay most commonly used to screen new leishmanial agents are different from intracellular amastigotes in terms of protein expression and drug susceptibility. […] THP-1 (human monocytic leukemia) cells were a kind gift from Dr Susan Wylie (Dundee) and maintained in minimal essential medium plus 10% (vol/vol) FBS. […] Briefly, THP-1 cells (20,000 per well, 200 μL) were plated into 96 well plates in presence of 10 nM PMA and incubated at 37 °C in 5% CO2 atmosphere for 75 h. […] Any remaining extracellular amastigotes were removed and the adhered cells were washed with the same supplemented PBS solution as above. Pre-aliquoted compounds in a serial dilution were added from another plate, such that the total well volume was 200 μL and incubated for further 72 h. Cells were fixed with 100% methanol, stained with Giemsa and examined microscopically.

[6] = Leishmania donovani, THP-1, 72 h

| EC50 [2] [µM] | EC50 [3] [µM] | EC50 ([4]; Leishmania donovani) [µM] | EC50 [5, 6] [µM] | EC50 [5] [µM] | melting point [°C] | EC50 [4] [µM] | SMILES | CC50 [1] [µM] | S.I (CC50/IC50), L. infantum promastigote [2] | S.I (CC50/IC50), L. donovani promastigote [3] | S.I (CC50/IC50), L. donovani axenic amastigote [4] | S.I (CC50/IC50), L. donovani intracellular amastigote [5] |
| --- | --- | --- | --- | --- | --- | --- | --- | --- | --- | --- | --- | --- |
| 24.3 ± 1.3 | 14.2 ± 1.2 | 5.8 ± 0.3 | 7.2 | 7.9 ± 0.4 | 188 to 190 |  | Cc1ccc(N2CCN(C(=O)c3cc4c5ccccc5n(C)c4c(-c4ccccc4)n3)CC2)cc1 [7b, (9-methyl-1-phenyl-9H-pyrido[3,4-b]indol-3-yl)(4-p-tolylpiperazin-1-yl)methanone] | > 500 | >20.5 | >35.2 | 86.2 | 63.3 |
| 72.4 ± 6.7 | 28.5 ± 1.8 |  |  |  | 196 to 198 |  | COc1cccc(N2CCN(C(=O)c3cc4c5ccccc5n(C)c4c(-c4ccccc4)n3)CC2)c1 [7e, (4-(3-methoxyphenyl)piperazin-1-yl)(9-methyl-1-phenyl-9H-pyrido[3,4-b]indol-3-yl)methanone] | > 500 | >6.9 | >17.5 |  |  |
|  | 4 ± 0.25 | 3.5 | 7.9 | 7.8 ± 1.3 | 130 to 132 | 2.2 ± 0.1 | Cn1c2ccccc2c2cc(C(=O)N3CCN(c4cccc(Cl)c4)CC3)nc(-c3ccccc3)c21 [7h, (4-(3-chlorophenyl)piperazin-1-yl)(9-methyl-1-phenyl-9H-pyrido[3,4-b]indol-3-yl)methanone] | > 500 | >9.8 | >125 | 227.3 | 64.1 |
| 21.7 ± 0.6 | 15.2 ± 0.85 | 19.4 ± 1.2 | 22 ± 2.1 |  | 152 to 154 |  | Cn1c2ccccc2c2cc(C(=O)N3CCN(c4ccccc4Cl)CC3)nc(-c3ccccc3)c21 [7i, (4-(2-chlorophenyl)piperazin-1-yl)(9-methyl-1-phenyl-9H-pyrido[3,4-b]indol-3-yl)methanone] | > 500 | >23.0 | >32.9 | 25.8 | 22.7 |
| 64.9 ± 5.7 | 85.9 ± 7.3 |  |  |  | 168 to 170 |  | Cn1c2ccccc2c2cc(C(=O)N3CCN(c4ccccc4F)CC3)nc(-c3ccccc3)c21 [7l, (4-(2-fluorophenyl)piperazin-1-yl)(9-methyl-1-phenyl-9H-pyrido[3,4-b]indol-3-yl)methanone] | > 500 | >7.7 | >5.8 |  |  |
| 93 ± 7.5 | 118 ± 6.4 |  |  |  | 166 to 168 |  | Cn1c2ccccc2c2cc(C(=O)N3CCN(c4cccc(Cl)c4Cl)CC3)nc(-c3ccccc3)c21 [7m, (4-(2,3-dichlorophenyl)piperazin-1-yl)(9-methyl-1-phenyl-9H-pyrido[3,4-b]indol-3-yl)methanone] | > 500 | >5.3 | >4.3 |  |  |
| 20.4 ± 1.4 | 4.57 ± 0.24 | 2.2 | 5.6 ± 0.9 |  | 158 to 160 | 3.5 ± 0.2 | Cn1c2ccccc2c2cc(C(=O)N3CCN(Cc4ccccc4)CC3)nc(-c3ccccc3)c21 [7n, (4-benzylpiperazin-1-yl)(9-methyl-1-phenyl-9H-pyrido[3,4-b]indol-3-yl)methanone] | > 500 | >24.5 | >109.4 | 142.9 | 89.3 |
